Results: patent publication US7888332B2, “Hydrazide-containing CFTR inhibitor compounds and uses thereof” (The Regents of the University of California, priority 2004, dated 2011)

Columns and labels:
CFTR [1] = molecular target: T1, CFTR (Homo sapiens, UniProt P13569); test: Cell-based YFP fluorescence assay of iodide influx after CFTR activation (screening); design: expressed in transfected cells; host or cells: Fisher Rat Thyroid (FRT) cells, stably transfected
Protocol: Screening was performed using an integrated system (Beckman) consisting of a 3-meter robotic arm, CO2 incubator, plate washer, liquid handling work station, barcode reader, delidding station, plate sealer and two fluorescence plate readers (Optima, BMG Lab Technologies), each equipped with two syringe pumps and HQ500/20X (500±10 nm) excitation and HQ535/30M (535±15 nm) emission filters (Chroma).
One hundred thousand small molecules (most 350-550 daltons) were selected for screening from commercial sources (ChemBridge and ChemDiv, both of San Diego, Calif.) using algorithms designed to maximize chemical diversity and drug-like properties. The compounds were obtained as a dried powder and solutions were made in DMSO just before testing, stored frozen as 2.5 mM stock solutions for further use.
For screening, cells in 96-well plates were washed three times and then CFTR halide conductance was activated by incubation for 15 minutes with an activating cocktail containing 10 μM forskolin, 20 μM apigenin and 100 μM isobutylmethyl-xanthine (IBMX). Test compounds (final 25 μM) were added 5 minutes prior to assay of iodide influx in which cells were exposed to a 100 mM inwardly-directed iodide gradient. YFP fluorescence was recorded for 2 seconds prior to and 12 seconds after creation of the iodide gradient. Initial rates of iodide influx were computed from the time course of decreasing fluorescence after the iodide gradient (Yang et al., J. Biol. Chem., 35079-35085, 2003).
A collection of 100,000 small, drug-like compounds was screened to identify new CFTR inhibitors. As diagrammed in FIG. 1A, compounds were screened at 25 μM in a cell-based assay of iodide influx after CFTR activation by an agonist mixture containing forskolin, IBMX and apigenin. Initial rates of iodide influx were computed from the kinetics of fluorescence decrease following chloride replacement by iodide. Four compounds (FIG. 1B) reducing iodide influx by greater than 50% were identified, which were not related structurally to known CFTR activators or inhibitors.

CFTR [2] = molecular target: T1, CFTR; test: Cell-attached patch-clamp, CFTR single channel activity in FRT cells; format: cell-based; design: expressed in transfected cells; host or cells: Fisher Rat Thyroid (FRT) cells, stably transfected; details: for Mean channel open time: +60 mV
Protocol: Patch-clamp experiments were carried out at room temperature on FRT cells stably expressing wildtype CFTR. Cell-attached and whole-cell configurations were used (Hamill et al., Pflugers Arch. 391:85-100, 1981). The cell membrane was clamped at specified voltages using an EPC-7 patch-clamp amplifier (List Medical). Data were filtered at 500 Hz and digitized at 2000 Hz. For whole-cell experiments the pipette solution contained (in mM): 120 CsCl, 10 TEA-Cl, 0.5 EGTA, 1 MgCl2, 40 mannitol, 10 Cs-HEPES and 3 mM MgATP (pH 7.3). For cell attached experiments EGTA was replaced with 1 mM CaCl2. The bath solution for whole-cell experiments contained (in mM): 150 NaCl, 1 CaCl2, 1 MgCl2, 10 glucose, 10 mannitol, 10 Na-TES (pH 7.4). In cell-attached experiments the bath solution contained (in mM): 130 KCl, 2 NaCl, 2 CaCl2, 2 MgCl2, 10 glucose, 20 mannitol, and 10 K-Hepes (pH 7.3). Inhibitors were applied by extracellular perfusion. CFTR channel activity in cell-attached patches was analyzed as described previously (Taddei et al., FEBS Lett. 558:52-56, 2004).
Cell-attached patch-clamp experiments were carried out to investigate the mechanism of GlyH-101 block of CFTR Cl^− current at the single-channel level. […] In the absence of the inhibitor, mean channel open time was 264±11 ms (SE, n=10). Mean channel open times at +60 mV at 0.4, 1, and 5 μM GlyH-101 were reduced to 181±29, 38±5, and 13±2 ms, respectively (n=5; p<0.01 for all concentrations vs. control).

[3] = after GlyH-101 addition (10 μM)

T1 sequence (P13569 whole entry): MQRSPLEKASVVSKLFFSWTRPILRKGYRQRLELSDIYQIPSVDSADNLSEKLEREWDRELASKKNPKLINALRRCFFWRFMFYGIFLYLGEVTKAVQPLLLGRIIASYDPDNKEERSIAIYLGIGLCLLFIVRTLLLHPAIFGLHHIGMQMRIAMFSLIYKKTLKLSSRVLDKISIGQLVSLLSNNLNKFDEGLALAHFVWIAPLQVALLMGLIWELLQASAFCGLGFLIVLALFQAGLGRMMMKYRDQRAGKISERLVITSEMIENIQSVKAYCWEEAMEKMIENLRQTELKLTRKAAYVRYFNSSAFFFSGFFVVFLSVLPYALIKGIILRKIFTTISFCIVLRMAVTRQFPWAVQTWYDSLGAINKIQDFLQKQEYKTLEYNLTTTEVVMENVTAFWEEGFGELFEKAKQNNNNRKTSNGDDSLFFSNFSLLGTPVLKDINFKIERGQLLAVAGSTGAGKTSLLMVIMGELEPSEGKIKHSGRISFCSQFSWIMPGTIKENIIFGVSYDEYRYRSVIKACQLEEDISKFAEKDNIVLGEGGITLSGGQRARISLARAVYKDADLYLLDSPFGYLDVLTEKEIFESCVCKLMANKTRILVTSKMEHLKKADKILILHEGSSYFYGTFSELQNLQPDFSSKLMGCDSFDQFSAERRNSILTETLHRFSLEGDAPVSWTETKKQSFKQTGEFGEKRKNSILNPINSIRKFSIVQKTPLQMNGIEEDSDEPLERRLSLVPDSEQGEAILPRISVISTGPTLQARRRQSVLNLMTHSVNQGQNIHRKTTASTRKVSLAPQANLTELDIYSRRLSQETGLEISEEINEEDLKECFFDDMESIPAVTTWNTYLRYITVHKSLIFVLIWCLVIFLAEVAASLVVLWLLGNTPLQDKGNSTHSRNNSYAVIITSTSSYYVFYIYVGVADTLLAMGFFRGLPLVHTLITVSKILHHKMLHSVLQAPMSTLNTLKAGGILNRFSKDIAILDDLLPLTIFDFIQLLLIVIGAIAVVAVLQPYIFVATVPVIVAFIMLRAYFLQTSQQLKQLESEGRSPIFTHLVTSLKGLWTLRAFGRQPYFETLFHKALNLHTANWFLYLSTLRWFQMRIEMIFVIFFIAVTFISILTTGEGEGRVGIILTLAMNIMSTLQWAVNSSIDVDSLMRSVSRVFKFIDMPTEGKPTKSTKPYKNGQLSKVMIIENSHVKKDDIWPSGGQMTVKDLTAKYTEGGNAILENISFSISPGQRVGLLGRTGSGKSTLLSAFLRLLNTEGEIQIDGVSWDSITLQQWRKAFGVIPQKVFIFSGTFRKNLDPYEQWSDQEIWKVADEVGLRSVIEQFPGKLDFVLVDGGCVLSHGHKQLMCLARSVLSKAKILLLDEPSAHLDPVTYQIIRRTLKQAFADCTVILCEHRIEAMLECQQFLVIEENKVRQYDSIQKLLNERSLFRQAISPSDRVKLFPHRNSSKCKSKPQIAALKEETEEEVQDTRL

With O=C(CNc1ccc2ccccc2c1)NN=Cc1cc(Br)c(O)c(Br)c1O [GlyH-101, N-2-napthalenyl-[(3,5-dibromo-2,4-dihydroxyphenyl)methylene]glycine hydrazide] the “CFTR inhibition after activation by different types of agonists” value (CFTR [1]; 50 μM GlyH-101, agonists 50 μM incl. CFTRact-01, 08, 10) was “effective CFTR inhibition”, the “time of further inhibition” value (CFTR [1]; [3]) was about 1 min and the “time within which 50% of the inhibition occurred” value (CFTR [1]; [3]) was at most 1 s. The “reversal of inhibition after washout” value (CFTR [1]; washout) was “complete reversal”, the “reversal of inhibition over 5 minutes after washout” value (CFTR [1]; washout, 5 minutes) was over 75% and the “change in single channel conductance” value (CFTR [2]; 0.4-5 μM) was “without a change”. The “Mean channel open time” value (CFTR [2]; 0.4 μM GlyH-101) was 181 ± 29 ms, the “Mean channel open time” value (CFTR [2]; 1 μM GlyH-101) was 38 ± 5 ms and the “Mean channel open time” value (CFTR [2]; 5 μM GlyH-101) was 13 ± 2 ms.
